According to patent publication US20050101595A1, “N-containing cycloalkyl-substituted amino-thiazole derivatives and pharmaceutical compositions for inhibiting cell proliferation and methods for their use” (PFIZER INC., priority 2003, published 2005):
Where a name gives a salt, the structure may show the parent alone. Read-outs that look alike come from different tables or passages of the source. Each block holds one molecule with its values, some of them ahead of it.

How the values were obtained:
[1] = system: HCT-116 cell line; test: Inhibition of cell growth, tetrazolium salt (MTT) assay; assay type: cell-based; details: for IC50: Homo sapiens, HCT-116, 120 h, MTT, three to five days, read-out: HCT-116 IC50; for HCT-116 % Inhibition at 0.25 μM: 0.25 μM compound
In short: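 MTT colorimetric viability: three-to-five-day compound exposure in 0.5% (v/v) DMSO at 37° C, MTT 0.2 mg/mL for the last 4 h, A540 compared with vehicle-treated cells.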

[2] = target: human CDK4 and genetically truncated (1-264) cyclin D3 (Homo sapiens, UniProt P11802); test: Inhibition of CDK4/Cyclin D Retinoblastoma Kinase Activity; assay type: biochemical; details: for Ki: apparent Ki, CDK4/truncated cyclin D3, Rb fragment substrate, 25 μM ATP
In short: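 Read-out: 32P/33P incorporation into Rb fragment (386-928) captured on nitrocellulose, phosphorimager. Enzyme 5 nM CDK4/cyclin D3(1-264) from insect cells; ATP 25 μM, pH 7.4, 30 °C, 20 min (60 min for tight binders). Ki from competitive fits.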

[3] = target: CDK2/Cyclin A (Homo sapiens, UniProt P24941); test: Inhibition of CDK2/Cyclin A Retinoblastoma Kinase Activity; assay type: biochemical; details: for Ki: apparent Ki, CDK2/proteolyzed cyclin A, Rb fragment substrate, 25 μM ATP; for CDK2 % Inhibition At 0.03 μM: Table 2
In short: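 Human CDK2, baculovirus/insect-cell expressed, complexed with proteolyzed cyclin A (10 nM or 19 nM CDK2) phosphorylates an Rb fragment with 25 μM [32P/33P]ATP at pH 7.4, 30° C, for 60 or 75 minutes under initial-rate conditions. Filter-captured radioactivity is read by phosphorimager; apparent Ki from competitive-inhibition fits.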

[4] = 0.1 μM compound, HCT-116, Table 3

Chain of human CDK4 and genetically truncated (1-264) cyclin D3 (P11802 whole entry, the tested form may be a part): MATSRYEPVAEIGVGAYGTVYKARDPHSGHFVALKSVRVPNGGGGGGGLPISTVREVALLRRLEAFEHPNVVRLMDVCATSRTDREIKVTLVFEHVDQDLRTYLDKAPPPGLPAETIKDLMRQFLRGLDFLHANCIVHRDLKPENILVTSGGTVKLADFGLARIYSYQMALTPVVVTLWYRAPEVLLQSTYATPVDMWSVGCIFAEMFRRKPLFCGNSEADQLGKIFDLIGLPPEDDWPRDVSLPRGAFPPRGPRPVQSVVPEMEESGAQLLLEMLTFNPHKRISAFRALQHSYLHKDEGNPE
Chain of human CDK4 and genetically truncated (1-264) cyclin D3 (P30281 1-264 partner): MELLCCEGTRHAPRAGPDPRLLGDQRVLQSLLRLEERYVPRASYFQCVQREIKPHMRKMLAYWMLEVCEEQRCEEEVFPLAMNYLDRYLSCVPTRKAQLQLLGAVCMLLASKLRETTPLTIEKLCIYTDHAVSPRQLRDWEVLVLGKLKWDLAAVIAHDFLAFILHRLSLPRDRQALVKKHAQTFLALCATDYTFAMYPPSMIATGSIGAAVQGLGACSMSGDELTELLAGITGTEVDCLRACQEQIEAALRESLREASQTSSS

Compound: CN1CCN(c2ccc(S(=O)(=O)N3CCC(Nc4nc(N)c(C(=O)c5c(F)cccc5F)s4)CC3)cn2)CC1 [Example G5, 1-(4-Amino-2-{1-[6-(4-methyl-piperazin-1-yl)-pyridine-3-sulfonyl]-piperidin-4-ylamino}-thiazol-5-yl)-1-(2,6-difluoro-phenyl)-methanone]
IC50 ([1]; first HCT-116 column (c4)): 29 nM
IC50 ([1]; second HCT-116 column (c5)): > 500 nM
Ki [2]: 1.3 nM
Ki [3]: 1.3 nM

Compound: CN1CC[C@@H](c2ccc(S(=O)(=O)N3CCC(Nc4nc(N)c(C(=O)c5c(F)cccc5F)s4)CC3)cc2)C1 [Example F53, (4-Amino-2-{1-[4-(1-methyl-pyrrolidin-3S-yl)-benzenesulfonyl]-piperidin-4-ylamino}-thiazol-5-yl)-(2,6-difluoro-phenyl)-methanone]
IC50 ([1]; first HCT-116 column (c4)): 90 nM
IC50 ([1]; second HCT-116 column (c5)): 500 nM
Ki [2]: 0.61 nM
Ki [3]: 1.3 nM

Compound: CC(C)(C)NC(=O)N1CCC(Nc2nc(N)c(C(=O)c3c(F)cccc3F)s2)CC1 [Example O27]
HCT-116 % Inhibition at 0.25 μM ([1]; HCT-116, Table 2): 24%
CDK4 % Inhibition at 0.03 μM ([2]; 0.03 μM compound, Table 2): 9%
CDK2 % Inhibition At 0.03 μM ([3]; 0.03 μM compound): 38%

Compound: CC(C)NC(=O)N1CCC(Nc2nc(N)c(C(=O)c3c(F)cccc3F)s2)CC1 [Example O29]
HCT-116 % Inhibition at 0.25 μM ([1]; HCT-116, Table 2): 33%
CDK4 % Inhibition at 0.03 μM ([2]; 0.03 μM compound, Table 2): 10%
CDK2 % Inhibition At 0.03 μM ([3]; 0.03 μM compound): 30%

Compound: Cc1ccc(C)c(NC(=O)N2CCC(Nc3nc(N)c(C(=O)c4c(F)cccc4F)s3)CC2)c1 [Example O42]
HCT-116 % Inhibition at 0.25 μM ([1]; HCT-116, Table 2): 26%
CDK4 % Inhibition at 0.03 μM ([2]; 0.03 μM compound, Table 2): 10%
CDK2 % Inhibition At 0.03 μM ([3]; 0.03 μM compound): 35%

Compound: Nc1nc(NC2CCN(S(=O)(=O)Nc3ccccc3)CC2)sc1C(=O)c1c(F)cccc1F [Example E2, 4-[4-Amino-5-(2,6-difluoro-benzoyl)-thiazol-2-ylamino]-piperidine-1-sulfonic acid phenylamide]
IC50 ([1]; first HCT-116 column (c4)): 680 nM
IC50 ([1]; second HCT-116 column (c5)): 1300 nM
Ki [2]: 3.9 nM
Ki [3]: 1.2 nM

Compound: Cn1cncc1-c1ccc(S(=O)(=O)N2CCC(Nc3nc(N)c(C(=O)c4c(F)cccc4F)s3)CC2)cc1 [Example F32, 1-(4-Amino-2-{1-[4-(3-methyl-3H-imidazol-4-yl)-benzenesulfonyl]-piperidin-4-ylamino}-thiazol-5-yl)-1-(2,6-difluoro-phenyl)-methanone Trifluoroacetic Acid Salt]
IC50 ([1]; first HCT-116 column (c4)): 110 nM
IC50 ([1]; second HCT-116 column (c5)): 380 nM
Ki [2]: 0.9 nM
Ki [3]: 0.4 nM

Further lines, with some results ahead:

CDK4 % Inhibition at 0.03 μM ([2]; at 0.03 μM): 52%
CDK2 % Inhibition at 0.03 μM ([3]; at 0.03 μM): 21%
Compound: Nc1nc(NC2CCN(C(=O)c3ccc(Cl)c(Cl)c3)CC2)sc1C(=O)c1c(F)cccc1F [Example R133]
HCT-116 % Inhibition at 0.1 μM ([1]; HCT-116 cells, at 0.1 μM): 5%
HCT-116 5 Inhibition at 0.25 μM ([1]; HCT-116 cells): 56

CDK4 % Inhibition at 0.03 μM ([2]; 0.03 μM compound, Table 4): 49%
CDK2 % Inhibition at 0.03 μM ([3]; 0.03 μM compound, Table 4): 33%
Compound: Nc1nc(NC2CCN(C(=O)c3cccc4ccccc34)CC2)sc1C(=O)c1c(F)cccc1F [Example Q62]
HCT-116 % Inhibition at 0.1 μM ([1]; 0.1 μM compound, HCT-116, Table 4): 12%
HCT-116 % Inhibition at 0.25 μM ([1]; HCT-116, Table 4): 53%

CDK4 % Inhibition at 0.03 μM ([2]; at 0.03 μM): 53%
CDK2 % Inhibition at 0.03 μM ([3]; at 0.03 μM): 45%
Compound: COc1cc(Cl)ccc1C(=O)N1CCC(Nc2nc(N)c(C(=O)c3c(F)cccc3F)s2)CC1 [Example R145]
HCT-116 % Inhibition at 0.1 μM ([1]; HCT-116 cells, at 0.1 μM): 0%
HCT-116 5 Inhibition at 0.25 μM ([1]; HCT-116 cells): 38

CDK4 % Inhibition at 0.03 μM ([2]; at 0.03 μM): 12%
CDK2 % Inhibition at 0.03 μM ([3]; at 0.03 μM): 21%
Compound: Cc1nnsc1C(=O)N1CCC(Nc2nc(N)c(C(=O)c3c(F)cccc3F)s2)CC1 [Example R70]
HCT-116 % Inhibition at 0.1 μM ([1]; HCT-116 cells, at 0.1 μM): 0%
HCT-116 5 Inhibition at 0.25 μM ([1]; HCT-116 cells): 44

CDK4 % Inhibition at 0.03 μM ([2]; 0.03 μM compound, Table 3): 78%
CDK2 % Inhibition at 0.03 μM ([3]; 0.03 μM compound, Table 3): 77%
Compound: CC(=O)Nc1ccc(S(=O)(=O)N2CCC(Nc3nc(N)c(C(=O)c4c(F)cccc4F)s3)CC2)cc1 [Example P17]
HCT-116 % Inhibition at 0.1 μM [1, 4]: 14%
HCT-116 % Inhibition at 0.25 μM ([1]; HCT-116, Table 3): 36%

CDK4 % Inhibition at 0.03 μM ([2]; 0.03 μM compound, Table 3): 79%
CDK2 % Inhibition at 0.03 μM ([3]; 0.03 μM compound, Table 3): 60%
Compound: Nc1nc(NC2CCN(S(=O)(=O)c3ccc(Cl)c4nonc34)CC2)sc1C(=O)c1c(F)cccc1F [Example P75]
HCT-116 % Inhibition at 0.1 μM [1, 4]: 27%
HCT-116 % Inhibition at 0.25 μM ([1]; HCT-116, Table 3): 43%

CDK4 % Inhibition at 0.03 μM ([2]; at 0.03 μM): 32%
CDK2 % Inhibition at 0.03 μM ([3]; at 0.03 μM): 27%
Compound: CCC(Oc1ccccc1)C(=O)N1CCC(Nc2nc(N)c(C(=O)c3c(F)cccc3F)s2)CC1 (stereo not drawn) [Example R162]
HCT-116 % Inhibition at 0.1 μM ([1]; HCT-116 cells, at 0.1 μM): 0%
HCT-116 5 Inhibition at 0.25 μM ([1]; HCT-116 cells): 34

CDK4 % Inhibition at 0.03 μM ([2]; 0.03 μM compound, Table 3): 51%
CDK2 % Inhibition at 0.03 μM ([3]; 0.03 μM compound, Table 3): 38%
Compound: Nc1nc(NC2CCN(S(=O)(=O)c3ccc(Oc4ccc(I)cc4)cc3)CC2)sc1C(=O)c1c(F)cccc1F [Example P86]
HCT-116 % Inhibition at 0.1 μM [1, 4]: 7%
HCT-116 % Inhibition at 0.25 μM ([1]; HCT-116, Table 3): 26%
